Source: patent US11753407B2, “Compounds for treating spinal muscular atrophy” (PTC Therapeutics, Inc., priority 2012, dated 2023)

Key:
[1] = test system: SMN2 minigene mRNA (SMN2-A minigene) in HEK293H cells; test: SMN2 minigene mRNA splicing RT-qPCR assay in cultured cells; assay type: cell-based, human; settings: Homo sapiens, HEK293-H; concentration increasing full length SMN2 mRNA 1.5-fold relative to vehicle-treated cells; HEK293H cells with SMN2-A minigene, 24 hours, 7-point concentration data; read-out: EC1.5x for production of full length SMN2 mRNA
Procedure, shortened: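 Read-out: minigene-specific full-length (exon 7-included) SMN2 mRNA by one-step multiplex RT-qPCR, normalized to GAPDH and divided by vehicle-treated level. Stable SMN2-A minigene HEK293H cells, 24 h compound exposure, 7 concentrations in duplicate. EC1.5× = concentration raising FL mRNA 1.5-fold.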

[2] = test system: Smn protein in SMA patient fibroblast cells (GM03813); test: Smn protein assay in cultured cells (SMN HTRF); assay type: cell-based, human; settings: SMA patient fibroblast cells, 48 hours; for EC1.5x for Smn protein expression: 7-point concentration curve, SMN HTRF, concentration producing 1.5 times Smn protein vs DMSO vehicle control; for maximum fold (Fold) increase of Smn protein: 7-point concentration data, fold relative to vehicle control
Procedure, shortened: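 Read-out: HTRF 665/620 nm ratio, blank-subtracted as ΔF, then expressed as fold over DMSO vehicle. Fibroblasts from SMA patients were exposed to compounds for 48 h (7 points, 3.16-fold steps, triplicates). Values are EC1.5× and maximum fold Smn increase.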

SMILES	EC (1.5-fold increase) [1] [µM]	EC1.5x for Smn protein expression [2]	maximum fold (Fold) increase of Smn protein [2]	melting point [°C]
Cc1cn2nc(-c3cc(=O)n4cc(N5CC(N6CCCC6)C5)ccc4n3)cc2c(C)n1 [Compound 759, 2-(4,6-dimethylpyrazolo[1,5-a]pyrazin-2-yl)-7-[3-(pyrrolidin-1-yl)azetidin-1-yl]-4H-pyrido[1,2-a]pyrimidin-4-one]	0.1 to 0.3	*** (an EC1.5× between >0.3 μM and ≤1 μM is indicated by three stars (***))	***** (a fold increase >1.65 is indicated by five stars (*****))	235 to 237
CCc1nc(C)cn2nc(-c3cc(=O)n4cc(N5CCCNCC5)ccc4n3)cc12 [Compound 760, 7-(1,4-diazepan-1-yl)-2-(4-ethyl-6-methylpyrazolo[1,5-a]pyrazin-2-yl)-4H-pyrido[1,2-a]pyrimidin-4-one]	< 0.1	**** (an EC1.5x≤0.3 μM is indicated by four stars (****))	***** (a fold increase >1.65 is indicated by five stars (*****))	212 to 214
CCCc1nc(C)cn2nc(-c3cc(=O)n4cc(N5C[C@H]6CNC[C@H]6C5)ccc4n3)cc12 [Compound 761, 7-[(3aR,6aS)-hexahydropyrrolo[3,4-c]pyrrol-2(1H)-yl]-2-(6-methyl-4-propylpyrazolo[1,5-a]pyrazin-2-yl)-4H-pyrido[1,2-a]pyrimidin-4-one]	< 0.1	**** (an EC1.5x≤0.3 μM is indicated by four stars (****))	***** (a fold increase >1.65 is indicated by five stars (*****))	212 to 214
CCCc1nc(C)cn2nc(-c3cc(=O)n4cc(C5=CCNCC5)ccc4n3)cc12 [Compound 762, 2-(6-methyl-4-propylpyrazolo[1,5-a]pyrazin-2-yl)-7-(1,2,3,6-tetrahydropyridin-4-yl)-4H-pyrido[1,2-a]pyrimidin-4-one]	< 0.1	**** (an EC1.5x≤0.3 μM is indicated by four stars (****))	***** (a fold increase >1.65 is indicated by five stars (*****))	257 to 260
CCc1nc(C)cn2nc(-c3cc(=O)n4cc(C5=CCNCC5)ccc4n3)cc12 [Compound 763, 2-(4-ethyl-6-methylpyrazolo[1,5-a]pyrazin-2-yl)-7-(1,2,3,6-tetrahydropyridin-4-yl)-4H-pyrido[1,2-a]pyrimidin-4-one]	< 0.1	**** (an EC1.5x≤0.3 μM is indicated by four stars (****))	***** (a fold increase >1.65 is indicated by five stars (*****))	287 to 289
Cc1cn2nc(-c3cc(=O)n4cc(N5CC(N6CCCCC6)C5)ccc4n3)cc2c(C)n1 [Compound 765, 2-(4,6-dimethylpyrazolo[1,5-a]pyrazin-2-yl)-7-[3-(piperidin-1-yl)azetidin-1-yl]-4H-pyrido[1,2-a]pyrimidin-4-one]	1 to 3	** (an EC1.5× between >1 μM and ≤3 μM is indicated by two stars (**))	**** (a fold increase between >1.5 and ≤1.65 is indicated by four stars (****))	220 to 223
CCCc1nc(C)cn2nc(-c3cc(=O)n4cc(C5CCNCC5)ccc4n3)cc12 [Compound 766, 2-(6-methyl-4-propylpyrazolo[1,5-a]pyrazin-2-yl)-7-(piperidin-4-yl)-4H-pyrido[1,2-a]pyrimidin-4-one]	< 0.1	**** (an EC1.5x≤0.3 μM is indicated by four stars (****))	***** (a fold increase >1.65 is indicated by five stars (*****))	228 to 230
Cc1cn2nc(-c3cc(=O)n4cc(N5CCC6(CCNC6)C5)ccc4n3)cc2c(C)n1 (stereo not shown) [Compound 767, 7-(2,7-diazaspiro[4.4]non-2-yl)-2-(4,6-dimethylpyrazolo[1,5-a]pyrazin-2-yl)-4H-pyrido[1,2-a]pyrimidin-4-one]	< 0.1	**** (an EC1.5x≤0.3 μM is indicated by four stars (****))	***** (a fold increase >1.65 is indicated by five stars (*****))	208 to 210
Cc1cc(-c2cc(=O)n3cc(N4CCN(C)CC4)ccc3n2)cc2cn(C)nc12 [Compound 768, 2-(2,7-dimethyl-2H-indazol-5-yl)-7-(4-methylpiperazin-1-yl)-4H-pyrido[1,2-a]pyrimidin-4-one]	< 0.1	**** (an EC1.5x≤0.3 μM is indicated by four stars (****))	***** (a fold increase >1.65 is indicated by five stars (*****))	216 to 218
Cc1cn2nc(-c3cc(=O)n4cc(N5CC[C@@H](CN(C)C)C5)ccc4n3)cc2c(C)n1 [Compound 770, 7-{(3S)-3-[(dimethylamino)methyl]pyrrolidin-1-yl}-2-(4,6-dimethylpyrazolo[1,5-a]pyrazin-2-yl)-4H-pyrido[1,2-a]pyrimidin-4-one]	< 0.1	*** (an EC1.5× between >0.3 μM and ≤1 μM is indicated by three stars (***))	**** (a fold increase between >1.5 and ≤1.65 is indicated by four stars (****))	239 to 241
CCc1nc(C)cn2nc(-c3cc(=O)n4cc(C5CCNCC5)cc(C)c4n3)cc12 [Compound 771, 2-(4-ethyl-6-methylpyrazolo[1,5-a]pyrazin-2-yl)-9-methyl-7-(piperidin-4-yl)-4H-pyrido[1,2-a]pyrimidin-4-one]	< 0.1	**** (an EC1.5x≤0.3 μM is indicated by four stars (****))	***** (a fold increase >1.65 is indicated by five stars (*****))	241 to 249
Cc1cc(C2CCNCC2)cn2c(=O)cc(-c3ccc4c(cnn4C)c3)nc12 [Compound 772, 9-methyl-2-(1-methyl-1H-indazol-5-yl)-7-(piperidin-4-yl)-4H-pyrido[1,2-a]pyrimidin-4-one]	< 0.1	**** (an EC1.5x≤0.3 μM is indicated by four stars (****))	***** (a fold increase >1.65 is indicated by five stars (*****))	212 to 217
Cc1cc(-c2cc(=O)n3cc(C4CCNCC4)ccc3n2)cc2cnn(C)c12 [Compound 775, 2-(1,7-dimethyl-1H-indazol-5-yl)-7-(piperidin-4-yl)-4H-pyrido[1,2-a]pyrimidin-4-one]	0.3 to 1	–	*** (a fold increase between >1.35 and ≤1.5 is indicated by three stars (***))	220 to 222
Cc1cc(-c2cc(=O)n3cc(N4CCNCC4)ccc3n2)cc2cnn(C)c12 [Compound 776, 2-(1,7-dimethyl-1H-indazol-5-yl)-7-(piperazin-1-yl)-4H-pyrido[1,2-a]pyrimidin-4-one]	1 to 3	–	** (a fold increase between >1.2 and ≤1.35 is indicated by two stars (**))	160 to 163
Cc1cc(-c2cc(=O)n3cc(N4CCN[C@@H](C)C4)ccc3n2)cc2cnn(C)c12 [Compound 777, 2-(1,7-dimethyl-1H-indazol-5-yl)-7-[(3S)-3-methylpiperazin-1-yl]-4H-pyrido[1,2-a]pyrimidin-4-one]	1 to 3	** (an EC1.5× between >1 μM and ≤3 μM is indicated by two stars (**))	*** (a fold increase between >1.35 and ≤1.5 is indicated by three stars (***))	248 to 250
CCN(CC)C[C@@H]1CCN(c2ccc3nc(-c4cc5c(C)nc(C)cn5n4)cc(=O)n3c2)C1 [Compound 778, 7-{(3S)-3-[(diethylamino)methyl]pyrrolidin-1-yl}-2-(4,6-dimethylpyrazolo[1,5-a]pyrazin-2-yl)-4H-pyrido[1,2-a]pyrimidin-4-one]	< 0.1	*** (an EC1.5× between >0.3 μM and ≤1 μM is indicated by three stars (***))	***** (a fold increase >1.65 is indicated by five stars (*****))	194 to 196
Cc1cn2nc(-c3cc(=O)n4cc(N5CC(CN(C)C)C5)ccc4n3)cc2c(C)n1 [Compound 780, 7-{3-[(dimethylamino)methyl]azetidin-1-yl}-2-(4,6-dimethylpyrazolo[1,5-a]pyrazin-2-yl)-4H-pyrido[1,2-a]pyrimidin-4-one]	< 0.1	**** (an EC1.5x≤0.3 μM is indicated by four stars (****))	***** (a fold increase >1.65 is indicated by five stars (*****))	228 to 230
CCN(CC)CC1CN(c2ccc3nc(-c4cc5c(C)nc(C)cn5n4)cc(=O)n3c2)C1 [Compound 781, 7-{3-[(diethylamino)methyl]azetidin-1-yl}-2-(4,6-dimethylpyrazolo[1,5-a]pyrazin-2-yl)-4H-pyrido[1,2-a]pyrimidin-4-one]	< 0.1	**** (an EC1.5x≤0.3 μM is indicated by four stars (****))	***** (a fold increase >1.65 is indicated by five stars (*****))	205 to 207
